Broadly, the viability is a read-out of living cells in per cent, often relative to untreated cells.

The series in a line: in vitro. To be noted: human, hela cells, % viability.

Molecules are shown by their SMILES.

For the compound `COc1ccc(C(NC(=O)c2ccc(Cn3nc(C)cc3C)o2)c2ccccc2)cc1` (centres unmarked) [CBK285578], the viability at 28.5 h, 10 µM came out at 87.8%.

Consider `Cc1cc(C)cc(NC(=O)c2ccccc2NS(=O)(=O)c2ccc(F)c(F)c2F)c1` [CBK113886], for which the viability at 28.5 h, 10 µM came out at 89.1%.

Turning to `O=C(O)c1ccc(/C=N/NC(=O)C2COc3ccccc3O2)cc1` (centres unmarked) [CBK261481], the viability at 28.5 h, 10 µM worked out at 100%.

Regarding `Cc1c(NC(=S)NC(=O)Cc2ccccc2)cccc1-c1nc2ncccc2o1` [CBK264345], the viability at 28.5 h, 10 µM amounted to 118%.

`Cc1ccccc1Nc1nc(CN2CCC3(CCCOC3)C2)cs1` (centres unmarked) [CBK304255]: the viability at 28.5 h, 10 µM is 95%.

On to `O=C(O)CCC(=O)N1N=C2C(=Cc3cccc([N+](=O)[O-])c3)CCCC2C1c1cccc([N+](=O)[O-])c1` (centres unmarked) [CBK296071], for which the viability at 28.5 h, 10 µM came out at 122%.

In the case of `Nc1ncc(-c2ccco2)nc1NCC1CCOCC1` [CBK063825], the viability at 28.5 h, 10 µM came to 100%.

In the case of `CNC(=O)CSc1nc2ccccc2nc1NC(C)C` [CBK107171], the viability at 28.5 h, 10 µM is 99.7%.

On to `CN(C)c1nc(Cl)c(C=Cc2cc(C(=O)O)c3ccccc3n2)s1` [CBK298272], for which the viability at 28.5 h, 10 µM stood at 110%.

On to `N#CCC(=O)N1CCN(Cc2ccc3c(c2)OCO3)CC1` [CBK074447], for which the viability at 28.5 h, 10 µM worked out at 88.7%.

On to `CCOc1cccc(/C=N\NC(=O)C2COc3cc4ccccc4cc3O2)c1O` (centres unmarked) [CBK262846], for which the viability at 28.5 h, 10 µM stood at 110%.

Take `CCN(CC)CCN1C(=O)C(O)=C(C(=O)c2ccc(Cl)cc2)C1c1cccc(Br)c1` (centres unmarked) [CBK265165]: the viability at 28.5 h, 10 µM was determined as 112%.

On to `CNC(=O)C1CCN(Cc2ccc(-c3nnn(CC(=O)NCc4ccc(C)cc4)n3)cc2)CC1` [CBK153195T], for which the viability at 28.5 h, 10 µM stood at 96.1%.

On to `OCc1ccc(-c2cncc(-c3ccc(O)cc3)n2)cc1` [CBK123792], for which the viability at 28.5 h, 10 µM worked out at 91.4%.

Turning to `Cc1nn(C)cc1S(=O)(=O)N1CCn2cccc2C1C(C)C` (centres unmarked) [CBK282787], the viability at 28.5 h, 10 µM turned out to be 99.8%.

Regarding `CCCn1cc(NC(=O)C2(c3ccccc3)CCC2)ccc1=O` [CBK306237], the viability at 28.5 h, 10 µM was 95.4%.

Regarding `Cc1ccn(CCC(=O)N2CCCC(c3cc4cccnc4[nH]3)C2)n1` (centres unmarked) [CBK284927], the viability at 28.5 h, 10 µM came out at 99.7%.

Turning to `O=C(NCc1ccccn1)c1cc2cc(F)ccc2[nH]1` [CBK107276], the viability at 28.5 h, 10 µM was 102%.

`CC(CC(=O)NC1(C#Cc2nccs2)CCCCC1)n1ccnc1` (centres unmarked) [CBK284746]: the viability at 28.5 h, 10 µM came out at 99.5%.

In the case of `OCCN1CCN(c2nc(NCC3CCCO3)c3ccccc3n2)CC1` (centres unmarked) [CBK266659C], the viability at 28.5 h, 10 µM came out at 99.1%.

As for `COc1cccc(-c2csc(N3CCN(C(=O)Nc4ccccc4)CC3)n2)c1` [CBK070275], the viability at 28.5 h, 10 µM was 95.4%.

Turning to `CCc1cc2cc3c(cc2nc1SCC(=O)Nc1cc(OC)ccc1OC)OCO3` [CBK108546], the viability at 28.5 h, 10 µM was 91.8%.

Consider `CC1(C)CC(CN)(c2ccccc2)CCO1` (centres unmarked) [CBK025559C], for which the viability at 28.5 h, 10 µM was 94.9%.

On to `COc1cccc(-n2nnc3c(SCC(N)=O)ncnc32)c1` [CBK287543], for which the viability at 28.5 h, 10 µM was determined as 75%.

Turning to `CC(C)C(=O)N1C[C@H]2CCc3nnc(-c4ccccc4)n3[C@H]2C1` [CBK283438], the viability at 28.5 h, 10 µM is 88%.

In the case of `Cc1nc(-c2ccc(S(=O)(=O)NCC3CC3)s2)cs1` [CBK085873], the viability at 28.5 h, 10 µM turned out to be 83.9%.

For `COc1ccc(OC)c(-c2nc(Nc3ccccc3C)sc2CC(=O)O)c1` [CBK126811], the viability at 28.5 h, 10 µM was found to be 101%.

With `COc1ccc(-c2ccc3c(c2)C(=O)N2CC[C@H](N)C[C@H]2C(=O)N3)c(OC)c1` [CBK289560], the viability at 28.5 h, 10 µM was determined as 104%.

In the case of `Brc1c(OCCNCCN2CCOCC2)ccc2ccccc12` [CBK268576G], the viability at 28.5 h, 10 µM came to 115%.

Regarding `COc1ccc(-c2c(C)nc(N)nc2-c2ccc(OC)cc2O)cc1` [CBK288186], the viability at 28.5 h, 10 µM worked out at 85.7%.

On to `O=C(CSc1nnc(COc2ccccc2)o1)c1cccc([N+](=O)[O-])c1` [CBK267868], for which the viability at 28.5 h, 10 µM is 104%.

On to `O=c1[nH]c2ncc(-c3ccco3)nc2n1Cc1ccc(F)c(Cl)c1` [CBK064393], for which the viability at 28.5 h, 10 µM turned out to be 108%.

On to `Cc1ccc(S(=O)(=O)NCCCN2CCOCC2)cc1C` [CBK262934], for which the viability at 28.5 h, 10 µM was 96.6%.

Regarding `N#C/C(=C\c1cn(Cc2ccc(Cl)cc2Cl)nc1-c1ccccc1)c1nc2ccccc2[nH]1` [CBK262545], the viability at 28.5 h, 10 µM was 87.3%.

As for `CN(CC1(C)COC1)C(=O)CCc1nc2ccccc2[nH]1` [CBK281719], the viability at 28.5 h, 10 µM turned out to be 88.8%.

Turning to `Cc1cc(C)n(-c2cccc(CN3CCC(CO)C3)c2)n1` (centres unmarked) [CBK282928], the viability at 28.5 h, 10 µM is 94.8%.

For the compound `OCCN1CCN(C2CCN(Cc3ccccc3Cl)CC2)CC1` [CBK264710], the viability at 28.5 h, 10 µM was determined as 90.1%.

Regarding `O=C(c1cscn1)N1CCC(Cc2ccccc2)CC1` [CBK200188], the viability at 28.5 h, 10 µM was found to be 103%.

For the compound `Cc1nc2ccccc2c(=O)n1CC(=O)NCc1ccccc1` [CBK072830], the viability at 28.5 h, 10 µM was 91.9%.

In the case of `C[C@H](c1ccccc1)N1C(=O)[C@@H]2CN(C(=O)CC(C)(C)C)CCN2C1=O` [CBK289638], the viability at 28.5 h, 10 µM stood at 89.5%.

In the case of `CCc1cc(Br)ccc1S(=O)(=O)NCCCC(=O)OC` [CBK044788], the viability at 28.5 h, 10 µM came to 88.2%.

Turning to `O=C(O)C(CC1COc2ccccc2O1)C(=O)O` (centres unmarked) [CBK276280], the viability at 28.5 h, 10 µM came to 89.6%.

On to `COCc1cc(C)nc(OCC(=O)N2CCCCC2)c1C#N` [CBK270228], for which the viability at 28.5 h, 10 µM was 104%.

Regarding `CC(=O)N1CCN(c2ccccc2NC(=O)c2ccc(OCc3ccccc3)cc2)CC1` [CBK269775], the viability at 28.5 h, 10 µM turned out to be 103%.

`CC(=O)C(Sc1nc(N2CCOCC2)nc(N2CCOCC2)n1)C(=O)Nc1ccccc1` (centres unmarked) [CBK266643]: the viability at 28.5 h, 10 µM was determined as 93%.

Turning to `COc1cc(CNC2CCCCC2)ccc1OCC(N)=O` [CBK263866], the viability at 28.5 h, 10 µM stood at 90.9%.

Take `Cc1[nH]c2c(C)ccc(C)c2c1CC(=O)N1[C@@H](c2ccccc2F)C[C@@H]2NC(=O)CCC[C@H]21` [CBK286011]: the viability at 28.5 h, 10 µM was 76.3%.

Turning to `NC(=O)C(=O)c1c(-c2ccccc2)cc2ccccn12` [CBK288466], the viability at 28.5 h, 10 µM is 100%.

Consider `CCCCC(c1nnn[nH]1)n1nnc2ccccc21` (centres unmarked) [CBK023526], for which the viability at 28.5 h, 10 µM was 93.6%.

In the case of `O=C(CNC(=O)c1cccc(F)c1)N/N=C1/C(=O)N(Cc2ccc3c(c2)OCO3)c2ccccc21` [CBK263519], the viability at 28.5 h, 10 µM turned out to be 102%.

Regarding `O=C(CSc1nc2ccccc2c(=O)n1-c1ccc(F)cc1)Nc1ccc(C(=O)O)cc1` [CBK296140], the viability at 28.5 h, 10 µM came out at 96%.

As for `Cc1cc(C(=O)Nc2ccc([C@@H](O)[C@H]3COCC(=O)N3Cc3ccccc3)cc2)n(C)n1` [CBK289669], the viability at 28.5 h, 10 µM came to 89%.

For the compound `O=C(Nc1cc(Cl)ccc1C(=O)O)c1ccc2c(c1)C(=O)N(Cc1cccnc1)C2=O` [CBK266455], the viability at 28.5 h, 10 µM was found to be 89.9%.

In the case of `C[S+]([O-])c1sc(Cl)c2c1C(=O)CCC2` (centres unmarked) [CBK005657], the viability at 28.5 h, 10 µM amounted to 104%.

Take `COc1ccccc1-c1nnc(SCC(=O)Nc2nccs2)o1` [CBK287390]: the viability at 28.5 h, 10 µM worked out at 107%.

As to `CCCOC1CCCN(C(=O)c2ccc(-c3ccc(Cl)cn3)cc2)C1` (centres unmarked) [CBK306540], the viability at 28.5 h, 10 µM is 89.5%.

As to `COC(=O)c1ccc(Cn2cc(NC(=O)NCCc3cccs3)cn2)o1` [CBK043825], the viability at 28.5 h, 10 µM is 82.4%.

Regarding `CCOC(=O)c1c(NC(C)=O)nc2n1CCS2` [CBK023488], the viability at 28.5 h, 10 µM is 98.5%.

Turning to `Cc1[nH]c2c(C)cccc2c1CC(=O)NC1CCCN(C)C1` (centres unmarked) [CBK282485], the viability at 28.5 h, 10 µM amounted to 74.1%.

`Cc1ccc(-c2cncc(N3CCCC3CO)n2)cc1C` (centres unmarked) [CBK065945]: the viability at 28.5 h, 10 µM worked out at 89.1%.

`Cc1ccc(C(=O)N/C(=C\c2cccc([N+](=O)[O-])c2)c2n[nH]c(=S)[nH]2)cc1` [CBK263114]: the viability at 28.5 h, 10 µM was determined as 87%.

Consider `Cc1sc2ncn(CC(=O)NCc3nnc4n3CCC4)c(=O)c2c1C` [CBK305654], for which the viability at 28.5 h, 10 µM amounted to 93.8%.

Take `COC(=O)c1ccc(/C=N/N=C2\NC(=O)C(CC(=O)Nc3ccccc3)S2)cc1` (centres unmarked) [CBK264483]: the viability at 28.5 h, 10 µM was found to be 93.6%.

Consider `CS(=O)(=O)c1ccc(-c2cnc3ncccc3c2N)cc1` [CBK083687], for which the viability at 28.5 h, 10 µM came to 97.5%.

With `S=C1NC2c3ccccc3OC3(CCCCC23)N1` (centres unmarked) [CBK288506], the viability at 28.5 h, 10 µM worked out at 102%.

Regarding `CCOC(=O)c1sc(-c2ccc(C(C)(C)C)cc2)nc1O` [CBK078538], the viability at 28.5 h, 10 µM turned out to be 92.3%.

Turning to `CSc1nnc(C2CCCN2C(=O)[C@@H]2C[C@@H]3C=C[C@H]2C3)n1C` (some centres unmarked) [CBK282012], the viability at 28.5 h, 10 µM was 79.8%.

For `O=C(NCc1ccc(F)cc1)Nc1ccccc1F` [CBK115584], the viability at 28.5 h, 10 µM came to 98.9%.

Take `CC(=O)N1CCCc2cc(C(O)CN3CCC(C)CC3)ccc21` (centres unmarked) [CBK282588]: the viability at 28.5 h, 10 µM was 87.3%.

For `Cc1nc(N2CCCCC2)ncc1C(=O)NCCSc1nncn1C` [CBK306955], the viability at 28.5 h, 10 µM is 81.1%.

Take `Nc1nc(OCc2ccncc2)cnc1-c1cnn(Cc2ccccc2)c1` [CBK145194]: the viability at 28.5 h, 10 µM was 96.7%.

Take `CC(C)Nc1nc2cc(Cl)c(Cl)cc2nc1Sc1nc[nH]n1` [CBK115261]: the viability at 28.5 h, 10 µM turned out to be 93.3%.

With `Cc1csc(C(Cc2ccsc2)NC(=O)CCc2ccno2)n1` (centres unmarked) [CBK285099], the viability at 28.5 h, 10 µM came out at 100%.

On to `NC(=O)Nc1ccc(C(=O)N2CCN(c3ccccc3)CC2)cc1` [CBK306392], for which the viability at 28.5 h, 10 µM came to 101%.

As to `CN1CCN(CC(=O)Nc2ccc(OCc3ccccc3)cc2)CC1` [CBK264844], the viability at 28.5 h, 10 µM came to 103%.

For `CCc1cc(O)n2nc(C)c(-c3cccs3)c2n1` [CBK283730], the viability at 28.5 h, 10 µM turned out to be 99.3%.

Take `Cc1ccc(C(C)C)c(OCC(=O)NS(=O)(=O)c2ccc(Br)cc2)c1` [CBK268719]: the viability at 28.5 h, 10 µM was 101%.

Consider `OCCNc1nc(-c2cccnc2)nc2ccccc12` [CBK262314], for which the viability at 28.5 h, 10 µM was 105%.

On to `CC(NC(=O)N1CCc2ccccc2C1)c1ccccc1` (centres unmarked) [CBK155310], for which the viability at 28.5 h, 10 µM turned out to be 102%.

Consider `CSc1cc(C)c2c(c1)COC1(CCN(C(=O)NC3CCCCC3)CC1)O2` [CBK060745], for which the viability at 28.5 h, 10 µM (bulk resorufin, single well) is 97.4%.
